Measurements: publication PMC8399023 (Molecules, 2021)
≈ marks a conversion by molar mass, not a printed value.

Settings: 24 h, pH 7.4

Solubility: 277 µg/mL (≈ 867 µM)
SMILES: CC(=O)N1CCC(NC(=O)NC23CC4CC(CC(C4)C2)C3)CC1 [AR9281]
